Papp A→B data for one compound are collected here from ChEMBL document CHEMBL1914399 (Bioorg Med Chem Lett, 2011).

The series can be described thus: Apparent permeability across apical to basolateral side of dog MDCK cells at 50 uM measured every 15 mins for 1.5 hrs by LC-MS/MS analysis. It counts as ADME, cell-based, Canis lupus familiaris.

A word on the Papp A→B: it is the apparent permeability from the apical to the basolateral side of a cell layer. In the case of `COCCc1ccc(OCC(O)CNC(C)C)cc1` (stereo unspecified) [METOPROLOL], the Papp A→B at 1.5 h, 50 µM amounted to 15.6 ×10⁻⁶ cm/s.
